The values below come from US8420606B2, “Method of utilizing physiological activity of rare saccharide and composition containing rare saccharide” (priority 2002, dated 2013).

“Also recorded” adds a separate entry of the source. Bounds are passed on as bounds.

Assay [1] is described as follows: rat blood-sugar value after intravenous saccharide under anesthesia. It is filed as in vivo. Particulars: for blood sugar value: 200 mg/kg BW intravenous, normal rats under anesthesia, fasted. As to the method:
(2) Method: 1) Administration of rare saccharide: An SD male rat (with weight of about 300 g) was employed in an experiment after fasting for 20 to 24 hours. Nembutal (58 mg/kg B.W) was applied to the rat through abdominal administration, and after cutting the neck under anesthesia, a silicon tube was fixedly kept inserted in the jugular vein. A 1-ml syringe was connected to the silicon tube for administration of the rare saccharide. 2) Blood-collecting: Blood was collected by using the 1-ml syringe through the silicon tube inserted in the jugular vein. The blood-collecting was made immediately before the administration of the rare saccharide and then after 5, 10, 15, 20, 25, 30, 60, 120, 180 and 240 minutes from the same. 3) Blood sugar measurement: The blood sugar value in the collected blood was measured by using Antosense II (made by Bayer Medical).

Assay [2] relates to Rat leukocyte (granulocyte). In words: production of active oxygen from leukocyte, LO12 chemiluminescence, zymosan. Particulars: for production of active oxygen from leukocyte: saccharide 10 mM added to the producing system, zymosan. It is filed as cell-based. Here is the method:
Influences of various kinds of rare saccharides upon production of active oxygen from leukocyte were examined under the conditions given below. In this Example 5, an effect against the production of active oxygen from leukocyte was examined with LO12 chemiluminescence.
(1) Target leukocyte to which the rare saccharides were added: Rat leukocyte (granulocyte) was used.
(2) Rare saccharides added: In addition to D-allose as a rare saccharide belonging to aldose, D-psicose and D-altros as rare saccharides belonging to ketose and D-tallitol belong to polyol were added as other comparative saccharides. Further, D-glucose and D-fructose were employed as saccharides abundant in the natural world.
(3) Experiment method: (1) Changes over time in production of active oxygen from rat leukocyte . . . The time-dependent progress in production of active oxygen caused by adding zymosan particles to rat leukocyte (granulocyte) was examined. Also, the time-dependent progress in production of active oxygen caused under the presence of each of the rare saccharides was examined.
(2) Influences of rare saccharides upon production of active oxygen . . . By adding the various saccharides to the system for producing active oxygen from leukocyte, the amount of produced active oxygen was measured for each saccharide. The concentration of each of the added rare saccharides was set to 10 mM. Also, the measurement was made under the condition without addition of any saccharides.
(3) Effect of rare saccharides upon production of active oxygen . . . The rare saccharides were each added at concentration of 10 mM after the start of phagocytosis and the start of the production of active oxygen subsequent to addition of zymosan to leukocyte.
(4) Concentration dependency of active-oxygen production inhibitory effect of D-allose . . . Concentration dependency of the active-oxygen production inhibitory effect of D-allose was examined. D-allose was added at concentration of 0 mM, 5 mM and 10 mM.

Assay [3] deals with island skin flap of Wistar rat. In words: island skin-flap ischemia-reperfusion, survival area. It is filed as in vivo. From the text:
(1) Purpose: In the past basic researches, the inventors have tried to find out the mechanisms of skin-flap necrosis after ischemia and reperfusion of island skin flaps and necrosis of distal portions of random pattern skin flaps. As a result, the inventors have clarified that active oxygen is related to the necrosis of island skin flaps after ischemia and reperfusion and the necrosis of distal portions of random pattern skin flaps. […] In this Example 7, a first purpose is to obtain basic data regarding active-oxygen production inhibitory effects of rare saccharides, and a second purpose is to ensure clinical applications with the view of effectively preventing the necrosis of island skin flaps and random pattern skin flaps. A third purpose is to realize an application as a preservative liquid for long-period preservation of free skin flaps and amputated limbs. (2) Experiment method: 1) A Wistar rat (♂, 7 to 8 weeks, and 300 g or less) was put under anesthesia through abdominal administration of pentobarbital (Nembutal). 2) The abdomen was wholly shaved by a hair clipper. 3) An island skin flap of 3×5 cm was formed in the left abdomen with the left femoral artery and vein serving as blood vessel pedicels. 4) The elevated island skin flap was stitched to the original position by using a 4-0 nylon string. 5) Drugs (0.6 mL per drug) were each administrated in one shot through the right femoral artery and vein by instantaneous injection. The administered drugs were D-allose, glucose (0.2 mg/g), and physiological saline in various concentrations.
6) After waiting for 15 minutes from the administration of each drug, the blood vessel pedicels of both the left femoral artery and vein were clamped. Two vascular clips (60 g for the vein) were used for the clamping.
7) Complete shutoff of blood circulation was confirmed by using a laser Doppler rheometer.
8) After 8 hours, the rats were unclamped. Resumption of blood circulation was also confirmed by using a laser Doppler rheometer.
9) After 1 week, the life or death of the skin flap was determined.
10) An image of the skin flap was taken by a digital camera and input to a computer to calculate a survival area (%) by using area calculation software.
(3) Experiment groups: The following 6 groups were prepared with n=15 in each group.
1) D-allose: 150 mg (0.5 mg/g)
2) D-allose: 60 mg (0.2 mg/g)
3) D-allose: 30 mg (0.1 mg/g)
4) D-allose: 15 mg (0.05 mg/g)
5) D-glucose: 60 mg (0.2 mg/g)
6) physiological saline (control)
(4) Results (FIGS. 17 to 20): FIG. 18 showing all data of the survival areas (%), and FIG. 19 showing results of variance analysis (one-dimensional arrangement). […] In the multiple comparison assay, a significant difference was determined on condition of p<0.05.

The next assay has as its target human albumin (Homo sapiens, UniProt P02768). In words: saccharification (glycation) of albumin, glycoalbumin reagent. The settings on record: albumin 3 g/dl. It is filed as biochemical. As to the method: (2) Method: After fragmenting albumin into amino acids by using protease K, i.e., glycoalbumin (GA) measurement reagent (made by Oriental Yeast Co., Ltd.), glycolysine was measured by using ketoamine oxydase (see FIG. 38). Glycation of human albumin with various rare saccharides was examined. A sample was prepared through the steps of dissolving 3 g/dl of pure human albumin in PBS and then dissolving each of the rare saccharides so as to prepare a solution in final concentration of 55.5 mM. The prepared solution was filtrated with a filter of 0.25 μm mesh and sterilized, followed by incubation at 37° C. for 7 days. During the incubation, the GA concentration (glycolysine concentration) was measured at intervals of exactly 24 hours. Further, similar experiments were conducted by adding each of the rare saccharides in an albumin solution (final concentration 3 g/dl) and a glucose solution (final concentration 55.5 mM) so that each of the rare saccharides had final concentration of 55.5 mM.

Where [4] appears, read: saccharide 55.5 mM + D-glucose 55.5 mM.
Where [5] appears, read: saccharide 55.5 mM, 37° C., 7 days.

human albumin, sequence (P02768 25-609): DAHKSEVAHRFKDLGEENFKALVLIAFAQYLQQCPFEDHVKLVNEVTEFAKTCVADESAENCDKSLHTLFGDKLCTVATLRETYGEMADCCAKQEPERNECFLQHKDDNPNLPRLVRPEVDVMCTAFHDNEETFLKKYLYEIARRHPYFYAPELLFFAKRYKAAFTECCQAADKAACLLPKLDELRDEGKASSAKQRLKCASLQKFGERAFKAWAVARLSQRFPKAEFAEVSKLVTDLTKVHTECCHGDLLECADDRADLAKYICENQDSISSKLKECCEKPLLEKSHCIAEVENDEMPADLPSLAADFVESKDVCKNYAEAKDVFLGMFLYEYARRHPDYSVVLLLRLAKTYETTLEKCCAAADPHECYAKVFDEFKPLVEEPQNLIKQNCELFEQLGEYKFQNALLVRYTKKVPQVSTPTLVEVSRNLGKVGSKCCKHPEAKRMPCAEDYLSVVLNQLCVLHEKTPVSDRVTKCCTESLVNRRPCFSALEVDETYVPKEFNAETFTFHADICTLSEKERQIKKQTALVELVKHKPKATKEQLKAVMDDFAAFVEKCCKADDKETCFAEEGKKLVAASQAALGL

Take `O=C[C@H](O)[C@H](O)[C@H](O)[C@H](O)CO` [D-allose]: the blood sugar value result in assay [1] is given as “no hypoglycemic was found”. Moreover, the “effective concentration for active-oxygen production inhibition” value in assay [2] (0, 5 and 10 mM tested) is recorded as “approximately 10 mM”. The “production of active oxygen, saccharide added after start of production” value in assay [2] (10 mM added after start of phagocytosis and of active oxygen production) is recorded as “the inhibitory effect was found”. The “active-oxygen production inhibitory effect” value in assay [2] (D-allose 5 mM) is “did not appear”. The inhibition at 10000 µM in assay [2] (Rattus norvegicus, Leukocyte, D-allose 10 mM, read-out: active-oxygen production inhibitory effect) was at least 50%. Moreover, the “production of active oxygen from leukocyte” value (“production … from leukocyte” for short) in assay [2] was “inhibited; also recorded: has an effect of inhibiting production of active oxygen; also recorded: very strong effect of inhibiting the production of active oxygen”. In addition, the “skin flap survival area versus physiological saline group and glucose group” value in assay [3] (D-allose 15 mg (0.05 mg/g)) is on record as “a statistical significant difference was not confirmed”. The “skin flap survival area versus physiological saline group” value in assay [3] (D-allose 30 mg (0.1 mg/g) or more (groups 150, 60, 30 mg), 8 hours clamping, 1 week, p<0.05) is “a statistical significant difference was confirmed”. The “skin flap survival area versus glucose group” value in assay [3] (D-allose 150 mg (0.5 mg/g) and 60 mg (0.2 mg/g)) is listed as “a statistical significant difference was confirmed”. For the same molecule, the “dose required to develop the effect of extending the skin flap survival area” value in assay [3] (per rat, 30 mg = 0.1 mg/g) is recorded as at least 30 mg. For the same molecule, the “saccharification rate of albumin under coexistence with glucose” value at human albumin (setting [4]) is listed as “about 140 μmol/day”. Moreover, the “saccharification rate of albumin” value on human albumin (setting [5]) was “about 90 μmol/day”.
For `O=C[C@H](O)[C@@H](O)[C@H](O)[C@H](O)CO` [D-glucose, reference compound], the blood sugar value result in assay [1] is reported as “temporarily increased”. The “time until blood sugar value approached a normal value” in assay [1] (D-glucose 200 mg/kg BW intravenous) is “about 60 minutes”. In addition, the “production … from leukocyte” value in assay [2] is “No inhibitory effect”. Besides, the “skin flap survival area versus physiological saline group” value in assay [3] (D-glucose 60 mg (0.2 mg/g)) is reported as “did not show a statistical significant difference”. Further, the “saccharification rate of albumin” value at human albumin (setting [5]) is on record as “about 50 μmol/day”.
For `O=C(CO)[C@H](O)[C@H](O)[C@H](O)CO` [D-psicose], the blood sugar value result in assay [1] is listed as “light hypoglycemic”; in assay [1] (listed as Psicose), “reduced during a period of 30 to 60 minutes”. Also, in assay [2], the “production … from leukocyte” value is on record as “No inhibitory effect”. For the same molecule, the “effect of inhibiting glycation under coexistence with glucose” value on human albumin (setting [4]) was “not found”. Further, the “glycation (saccharification) of albumin” value on human albumin (setting [5]) is “not found; also recorded: does not promote saccharification of albumin”.
